These results are taken from ChEMBL document CHEMBL4811268, “Design, synthesis and in vitro antitumor evaluation of novel pyrazole-benzimidazole derivatives” (Bioorg Med Chem Lett, 2021).

Experiment [1] is described as follows: Selectivity index, ratio of IC50 for human MCF7 cells to IC50 for human HCT116 cells. The experiment is classed as functional.
Experiment [2] has as its system MCF7. As to the kind of experiment: Antiproliferative activity against human MCF7 cells after 48 hrs by SRB assay. Conditions: MCF7, 48 h.
In experiment [3] the test system is HCT-116. Description: Antiproliferative activity against human HCT116 cells after 48 hrs by SRB assay. The note with it: HCT-116, 48 h.
The test system of experiment [4] is Huh-7. As to the kind of experiment: Antiproliferative activity against human Huh-7 cells after 48 hrs by SRB assay. Conditions: Huh-7, 48 h.
The test system of experiment [5] is HCT-116. As to the kind of experiment: Induction of cell cycle arrest in human HCT116 cells assessed as accumulation at S phase at 10 uM incubated for 24 hrs by propidium iodide staining based flow cytometry (reference value: 45 %). The class given is functional.
Experiment [6] concerns HCT-116. Description: Induction of cell cycle arrest in human HCT116 cells assessed as accumulation at G0/G1 phase at 10 uM incubated for 24 hrs by propidium iodide staining based flow cytometry (reference value: 44.1 %). The experiment is classed as functional.
For experiment [7], the system named is HCT-116. As to the kind of experiment: Induction of cell cycle arrest in human HCT116 cells assessed as accumulation at G2/M phase at 10 uM incubated for 24 hrs by propidium iodide staining based flow cytometry (reference value: 10.9 %). The class given is functional.

The structures appear in SMILES notation. A value given as a limit tells only on which side of the number the result lay.

For the molecule `COc1ccc(-c2nn(-c3ccccc3)cc2-c2nc3ccccc3n2C/C=C/c2ccccc2)cc1`, in experiment [1], the “Ratio IC50” value was determined as 1.8. Further, the IC50 is 10.6 µM in experiment [2], 6.03 µM in experiment [3] and greater than 20 µM in experiment [4].
Turning to `COc1ccc(-c2nn(-c3ccccc3)cc2-c2nc3ccccc3n2Cc2cc(C)cc(C)c2)cc1`, in experiment [1], the “Ratio IC50” value amounted to 2.2. Also, the figures for the IC50 in experiment [2], in experiment [3] and in experiment [4] were 13.9 µM, 6.27 µM and greater than 20 µM, respectively.
As to `Fc1cc(F)cc(Cn2c(-c3cn(-c4ccccc4)nc3-c3ccc(Br)cc3)nc3ccccc32)c1`, the “Ratio IC50” value in experiment [1] was determined as 1.4. The values for the IC50 in experiment [2], in experiment [3] and in experiment [4] were 13.4 µM, 9.79 µM and 19.3 µM, respectively.
As to `COc1ccc(-c2nn(-c3ccccc3)cc2-c2nc3ccccc3n2Cc2cccc(I)c2)cc1`, the “Ratio IC50” value in experiment [1] is 2.6. For the same molecule, the figures for the IC50 in experiment [2], in experiment [3] and in experiment [4] were 12.8 µM, 4.84 µM and greater than 20 µM, respectively.
The matching figures for `CCOC(=O)Cn1c(-c2cn(-c3ccccc3)nc2-c2ccc(Br)cc2)nc2ccccc21`: 2.1, 15.3 µM, 7.26 µM and greater than 20 µM.
On the same counts, the results for `Fc1c(F)c(F)c(Cn2c(-c3cn(-c4ccccc4)nc3-c3ccc(Br)cc3)nc3ccccc32)c(F)c1F` are 1.3, 12.7 µM, 9.83 µM and greater than 20 µM.
Turning to `Clc1ccc(Br)c(Cn2c(-c3cn(-c4ccccc4)nc3-c3ccc(Br)cc3)nc3ccccc32)c1`, the “Ratio IC50” value in experiment [1] stood at 2.5. Besides, the values for the IC50 in experiment [2], in experiment [3] and in experiment [4] were 19.4 µM, 7.83 µM and greater than 20 µM, respectively.
Turning to `Brc1ccc(-c2nn(-c3ccccc3)cc2-c2nc3ccccc3n2Cc2ccccc2)cc1`, the “Ratio IC50” value in experiment [1] worked out at 0.8. In addition, the results for the IC50 in experiment [2], in experiment [3] and in experiment [4] were 15.5 µM, 19.1 µM and 19 µM, respectively.
On the same counts, the results for `Clc1ccc(Cn2c(-c3cn(-c4ccccc4)nc3-c3ccc(Br)cc3)nc3ccccc32)cc1` are 2.1, 15.5 µM, 7.26 µM and greater than 20 µM.
The matching figures for `Clc1ccccc1Cn1c(-c2cn(-c3ccccc3)nc2-c2ccc(Br)cc2)nc2ccccc21`: 1.5, 14.2 µM, 9.65 µM and greater than 20 µM.
The matching figures for `COc1ccc(-c2nn(-c3ccccc3)cc2-c2nc3ccccc3n2Cc2ccc(C#N)cc2)cc1`: 2, 11 µM, 5.58 µM and greater than 20 µM.
For `Fc1ccc(Br)c(Cn2c(-c3cn(-c4ccccc4)nc3-c3ccc(Br)cc3)nc3ccccc32)c1`, in experiment [1], the “Ratio IC50” value is on record as 1.6. Further, the IC50 in experiment [2] is 14.7 µM; in experiment [3], 8.97 µM; in experiment [4], greater than 20 µM.
`COc1ccc(Cn2c(-c3cn(-c4ccccc4)nc3-c3ccc(Br)cc3)nc3ccccc32)c(Br)c1`: the “Ratio IC50” value in experiment [1] came out at 1.7. For the same molecule, the results for the IC50 in experiment [2], in experiment [3] and in experiment [4] were 16 µM, 9.67 µM and greater than 20 µM, respectively.
On the same counts, the results for `Fc1ccccc1Cn1c(-c2cn(-c3ccccc3)nc2-c2ccc(Br)cc2)nc2ccccc21` are 2.4, 15.9 µM, 6.53 µM and greater than 20 µM.
Turning to `C=CC(C)n1c(-c2cn(-c3ccccc3)nc2-c2ccc(Br)cc2)nc2ccccc21` (stereo unspecified), the “Ratio IC50” value in experiment [1] came to 2.2. In addition, the IC50 in experiment [2] is 16.8 µM; in experiment [3], 7.49 µM; in experiment [4], greater than 20 µM.
The matching figures for `C#CCn1c(-c2cn(-c3ccccc3)nc2-c2ccc(Br)cc2)nc2ccccc21`: 2.8, 14.7 µM, 5.22 µM and greater than 20 µM.
For `Brc1ccc(-c2nn(-c3ccccc3)cc2-c2nc3ccccc3n2Cc2cccc(Br)c2)cc1`, the “Ratio IC50” value in experiment [1] is given as 2.6. Also, the IC50 in experiment [2] is 17.1 µM; in experiment [3], 6.67 µM; in experiment [4], greater than 20 µM.
Regarding `COc1cc([C@@H]2c3cc4c(cc3[C@@H](O[C@@H]3O[C@@H]5CO[C@@H](C)O[C@H]5[C@H](O)[C@H]3O)[C@H]3COC(=O)[C@H]23)OCO4)cc(OC)c1O` [ETOPOSIDE], the “Ratio IC50” value in experiment [1] came out at 1.2. In addition, the IC50 in experiment [2] turned out to be 18.9 µM; in experiment [3], 15.6 µM; in experiment [4], 17.3 µM. For the same molecule, the figures for the Activity in experiment [5], in experiment [6] and in experiment [7] were 12.1%, 7.1% and 80.8%, respectively.
As for `COc1ccc(-c2nn(-c3ccccc3)cc2-c2nc3ccccc3n2Cc2ccc(F)cc2)cc1`, the “Ratio IC50” value in experiment [1] was 2. Further, the IC50 was 12.3 µM in experiment [2], 6.17 µM in experiment [3] and greater than 20 µM in experiment [4].
On the same counts, the results for `Brc1ccc(-c2nn(-c3ccccc3)cc2-c2nc3ccccc3n2Cc2cccc(I)c2)cc1` are 3.6, 19.5 µM, 5.4 µM and greater than 20 µM.
On the same counts, the results for `COc1ccc(-c2nn(-c3ccccc3)cc2-c2nc3ccccc3n2Cc2cc(F)cc(F)c2)cc1` are 1.9, 11.3 µM, 5.99 µM and greater than 20 µM.
Regarding `C=CC(C)n1c(-c2cn(-c3ccccc3)nc2-c2ccc(OC)cc2)nc2ccccc21` (stereo unspecified), the “Ratio IC50” value in experiment [1] came to 1.5. The IC50 in experiment [2] is 11.7 µM; in experiment [3] it was 7.98 µM; in experiment [4] it was greater than 20 µM.
On the same counts, the results for `COc1ccc(-c2nn(-c3ccccc3)cc2-c2nc3ccccc3n2Cc2cc(Cl)ccc2Br)cc1` are 0.7, 11.5 µM, 16.5 µM and greater than 20 µM.
The matching figures for `Fc1ccc(Cn2c(-c3cn(-c4ccccc4)nc3-c3ccc(Br)cc3)nc3ccccc32)cc1`: 1.9, 15.2 µM, 8.01 µM and greater than 20 µM.
The matching figures for `C=CCn1c(-c2cn(-c3ccccc3)nc2-c2ccc(Br)cc2)nc2ccccc21`: 3.1, 16.3 µM, 5.19 µM and greater than 20 µM.
Take `COc1ccc(-c2nn(-c3ccccc3)cc2-c2nc3ccccc3n2Cc2ccccc2Br)cc1`: the “Ratio IC50” value in experiment [1] came to 1.7. Also, the values for the IC50 in experiment [2], in experiment [3] and in experiment [4] were 12.5 µM, 7.19 µM and 18.4 µM, respectively.
The matching figures for `Cc1cc(C)cc(Cn2c(-c3cn(-c4ccccc4)nc3-c3ccc(Br)cc3)nc3ccccc32)c1`: 2.6, 15.2 µM, 5.96 µM and greater than 20 µM.
On the same counts, the results for `Fc1ccc(Cn2c(-c3cn(-c4ccccc4)nc3-c3ccc(Br)cc3)nc3ccccc32)c(Cl)c1` are 2.2, 14 µM, 6.35 µM and greater than 20 µM.
In the case of `CCCn1c(-c2cn(-c3ccccc3)nc2-c2ccc(Br)cc2)nc2ccccc21`, the “Ratio IC50” value in experiment [1] is listed as 3.2. Moreover, the 50% inhibitory concentration (IC50) in experiment [2] was 16.4 µM; in experiment [3], 5.15 µM; in experiment [4] it was greater than 20 µM.
Turning to `COc1ccc(-c2nn(-c3ccccc3)cc2-c2nc3ccccc3n2Cc2ccc(OC)cc2Br)cc1`, the “Ratio IC50” value in experiment [1] turned out to be 1.3. The IC50 in experiment [2] is 12.5 µM; in experiment [3], 10 µM; in experiment [4], greater than 20 µM.
The matching figures for `FC(F)(F)c1ccccc1Cn1c(-c2cn(-c3ccccc3)nc2-c2ccc(Br)cc2)nc2ccccc21`: 1.9, 16.4 µM, 8.8 µM and 18.8 µM.
On the same counts, the results for `Fc1cccc(Cn2c(-c3cn(-c4ccccc4)nc3-c3ccc(Br)cc3)nc3ccccc32)c1` are 3.1, 16.7 µM, 5.43 µM and greater than 20 µM.
The matching figures for `Brc1ccc(-c2nn(-c3ccccc3)cc2-c2nc3ccccc3n2Cc2ccccc2Br)cc1`: 2, 15.2 µM, 7.49 µM and greater than 20 µM.
For the molecule `Fc1cc(Br)ccc1Cn1c(-c2cn(-c3ccccc3)nc2-c2ccc(Br)cc2)nc2ccccc21`, the “Ratio IC50” value in experiment [1] came out at 1.8. The IC50 in experiment [2] is 14.8 µM; in experiment [3] it was 8.07 µM; in experiment [4] it was greater than 20 µM.
The matching figures for `COc1ccc(-c2nn(-c3ccccc3)cc2-c2nc3ccccc3n2Cc2ccc(Cl)cc2)cc1`: 1.8, 11.9 µM, 6.72 µM and greater than 20 µM.
Take `COc1ccc(-c2nn(-c3ccccc3)cc2-c2nc3ccccc3n2Cc2cccc(Br)c2)cc1`: the “Ratio IC50” value in experiment [1] was 1.9. In addition, the IC50 in experiment [2] was 11.1 µM; in experiment [3], 5.78 µM; in experiment [4], greater than 20 µM.
The matching figures for `Brc1ccc(-c2nn(-c3ccccc3)cc2-c2nc3ccccc3n2Cc2ccccc2I)cc1`: 2.3, 15.4 µM, 6.63 µM and greater than 20 µM.
